This note sets out measurements from publication PMC11997890, “In Vivo and In Vitro Pharmacokinetic Studies of a Dual Topoisomerase I/II Inhibitor” (ACS Pharmacology & Translational Science, 2025).

Series [1] is described as follows: In vitro biotransformation of P8-D6 with rat tissue fractions. Particulars: 1 mM P8-D6, 150 min. The class given is in vitro ADME. The protocol:
P8-D6 (1 mM) was incubated with postnuclear supernatant (PNS), microsomes, or S9 reaction mixture of various tissue samples (liver, kidney, lung, spleen, and colon) from different donor species (pigs, mice, rats, and humans) for 150 min (study preparation scheme supplied as Figure S5). The commercial human and rat enzymes were subjected to quality control by the supplier. Three phase I metabolites were identified. […] LC-MS and NMR spectroscopic data for the metabolites are given in Supporting Information. Based on the structural characteristics, the metabolites were named as follows: P8-DO (4), P8-D6 N-oxide (6), and P8-D6 mono (8). All metabolites were synthesized to confirm the postulated structure (chapter Synthesis of Metabolites). The extent of metabolism during in vitro incubation was highly dependent on the species (pig > mouse > rat > human) (Figure ).
For all phase I metabolism studies (except cell cultures), a 0.3 mL reaction mixture consisting of 1 mM substrate (P8-D6, P8-D6 mono, P8-D6 N-oxide), 1 mM NADPH as a cofactor, 0.67 mg/mL protein from homogenized tissue or subcellular fractions, respectively (except recombinant enzymes, where 0.5 mg/mL was used), and PBS buffer (pH 7.4) was used. All experiments were performed in biological triplicates. […]

A further series deals with T1, human (Homo sapiens, UniProt P02763).
T1 construct: purchased Merck KGaA, Darmstadt G9885
T1 sequence (P02763 19-201): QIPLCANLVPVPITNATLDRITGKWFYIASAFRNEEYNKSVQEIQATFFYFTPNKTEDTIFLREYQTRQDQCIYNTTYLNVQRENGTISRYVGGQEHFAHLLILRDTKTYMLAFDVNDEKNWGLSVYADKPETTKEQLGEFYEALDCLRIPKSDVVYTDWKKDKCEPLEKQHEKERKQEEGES
Description: Binding to isolated plasma protein by ultrafiltration. Here is the method:
(§1) To examine the effect of the P8-D6 plasma protein binding on the in vivo bioavailability, human and rat plasma was spiked in vitro and incubated with P8-D6. By using ultrafiltration to separate free P8-D6 from the protein-bound fraction, a plasma protein binding of 99% (Figure A) was estimated. However, neither human α-1-microglobulin (3.06%) nor human serum albumin (0.91%) is responsible for binding. According to initial findings, γ-globulins (94.59%), human transferrin (90.43%), LDL (87.99%), human α2-HS glycoprotein (85.29%), and human fibrinogen (78.89%) lead to binding of P8-D6.
(§2) To examine the extent of plasma protein binding, 150 μL of blank samples of human plasma (1 mM) and rat plasma (1 mM), human albumin (1 mM, #A1653, Merck KGaA, Darmstadt); human α1-acid glycoprotein (1 mM; #G9885, Merck KGaA, Darmstadt); human α2-HS-glycoprotein (0.1 mM; #G0516, Merck KGaA, Darmstadt); human transferrin (0.2 mM; #T8158, Merck KGaA, Darmstadt); human fibrinogen (0.2 mM; #F3879, Merck KGaA, Darmstadt); LDL (0.2 mM; […]); and human γ-globulin (1 mM; #G4386, Merck KGaA, Darmstadt) were spiked with P8-D6 in the same final concentration as the protein and incubated in a shaking water bath at 37 °C for 120 min. Afterward, the unbound fraction of P8-D6 was separated by ultrafiltration (Vivaspin 500 10 000 MWCO filter). The sample preparation was performed according to plasma samples. Blank plasma samples served as the control samples.

A further series concerns the target T2, human serum albumin (Homo sapiens, UniProt P02768).
T2 construct: purchased Merck KGaA, Darmstadt A1653
Described as above. The protocol: as §1, §2

A further series addresses T3, human α2-HS glycoprotein (Homo sapiens, UniProt P02765).
T3 construct: purchased Merck KGaA, Darmstadt G0516
Described as above. Here is the method:
as §1, §2

Another series addresses T4, human transferrin (Homo sapiens, UniProt P02787).
T4 construct: purchased Merck KGaA, Darmstadt T8158
Described as above. Here is the method:
as §1, §2

The target in the next series is T5, human fibrinogen (Homo sapiens, UniProt P02671+P02675+P02679).
T5 construct: purchased Merck KGaA, Darmstadt F3879
T5 sequence (P02671 20-629 limits assumed): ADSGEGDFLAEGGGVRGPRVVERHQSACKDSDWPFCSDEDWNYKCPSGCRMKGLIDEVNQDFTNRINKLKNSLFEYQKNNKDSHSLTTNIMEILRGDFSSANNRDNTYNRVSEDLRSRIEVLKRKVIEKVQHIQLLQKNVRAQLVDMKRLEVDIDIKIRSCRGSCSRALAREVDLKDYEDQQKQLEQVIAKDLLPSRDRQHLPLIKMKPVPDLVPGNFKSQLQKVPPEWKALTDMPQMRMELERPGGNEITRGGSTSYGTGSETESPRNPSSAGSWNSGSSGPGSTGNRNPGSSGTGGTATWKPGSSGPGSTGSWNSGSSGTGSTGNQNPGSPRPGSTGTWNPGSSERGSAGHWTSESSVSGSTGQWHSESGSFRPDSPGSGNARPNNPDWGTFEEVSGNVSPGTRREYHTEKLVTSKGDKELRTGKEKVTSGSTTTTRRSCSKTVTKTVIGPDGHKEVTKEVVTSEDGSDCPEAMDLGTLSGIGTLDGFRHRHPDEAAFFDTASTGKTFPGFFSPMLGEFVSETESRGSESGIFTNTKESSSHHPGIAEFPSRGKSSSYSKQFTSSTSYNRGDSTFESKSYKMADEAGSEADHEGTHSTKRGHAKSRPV
T5 sequence (P02675 31-491): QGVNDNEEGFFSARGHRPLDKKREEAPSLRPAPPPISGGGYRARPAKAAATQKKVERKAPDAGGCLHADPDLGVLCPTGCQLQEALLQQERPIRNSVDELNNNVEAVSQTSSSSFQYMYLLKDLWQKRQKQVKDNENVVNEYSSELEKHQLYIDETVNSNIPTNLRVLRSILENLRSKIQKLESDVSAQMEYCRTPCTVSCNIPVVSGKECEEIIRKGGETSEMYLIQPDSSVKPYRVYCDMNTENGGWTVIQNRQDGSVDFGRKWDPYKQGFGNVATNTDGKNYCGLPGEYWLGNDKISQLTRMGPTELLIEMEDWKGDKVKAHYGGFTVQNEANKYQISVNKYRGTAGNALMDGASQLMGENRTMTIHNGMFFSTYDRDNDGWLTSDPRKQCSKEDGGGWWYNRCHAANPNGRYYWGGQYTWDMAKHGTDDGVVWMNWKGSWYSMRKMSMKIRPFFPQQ
T5 sequence (P02679 27-433 limits assumed): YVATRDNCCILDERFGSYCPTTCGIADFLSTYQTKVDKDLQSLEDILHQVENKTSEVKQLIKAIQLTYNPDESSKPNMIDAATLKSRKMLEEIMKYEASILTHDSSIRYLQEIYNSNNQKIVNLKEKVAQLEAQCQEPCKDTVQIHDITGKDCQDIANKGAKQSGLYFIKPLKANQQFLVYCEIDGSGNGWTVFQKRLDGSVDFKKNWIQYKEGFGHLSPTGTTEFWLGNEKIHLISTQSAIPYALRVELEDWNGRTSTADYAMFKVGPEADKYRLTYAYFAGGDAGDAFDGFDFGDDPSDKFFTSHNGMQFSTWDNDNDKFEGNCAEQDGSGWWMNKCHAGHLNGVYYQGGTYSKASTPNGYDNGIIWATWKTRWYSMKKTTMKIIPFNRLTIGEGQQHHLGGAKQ
The description is as above. Here is the method: as §1, §2

A further series concerns LDL. The series is described as above. Here is the method:
as §1, §2

The subject of another series is γ-globulins. Described as above. Set-up: species or system human. Here is the method:
as §1
as §2, with “Blank plasma samples served as the control samples.” left out

Another series deals with T6, CYP1A2 (Homo sapiens, UniProt P05177).
T6 construct: host or cells: human liver microsomes (one value) / recombinant CYP enzyme (other value)
T6 sequence (P05177 whole entry): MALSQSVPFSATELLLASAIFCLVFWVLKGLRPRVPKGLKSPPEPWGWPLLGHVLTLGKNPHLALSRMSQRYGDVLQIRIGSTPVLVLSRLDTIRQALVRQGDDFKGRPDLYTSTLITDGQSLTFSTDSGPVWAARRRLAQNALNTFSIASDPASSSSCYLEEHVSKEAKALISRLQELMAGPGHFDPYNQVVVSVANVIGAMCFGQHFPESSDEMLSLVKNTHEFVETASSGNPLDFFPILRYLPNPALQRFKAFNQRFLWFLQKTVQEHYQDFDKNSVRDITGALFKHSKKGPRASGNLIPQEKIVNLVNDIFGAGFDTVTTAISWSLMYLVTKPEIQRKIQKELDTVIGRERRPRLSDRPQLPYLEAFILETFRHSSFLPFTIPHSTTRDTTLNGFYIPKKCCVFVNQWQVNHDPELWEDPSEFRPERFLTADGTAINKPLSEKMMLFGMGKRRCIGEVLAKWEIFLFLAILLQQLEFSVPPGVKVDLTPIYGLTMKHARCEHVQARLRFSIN
Description: In vitro CYP inhibition, marker substrate phenacetin. It counts as in vitro ADME. Here is the method:
To assess metabolizing enzyme-mediated drug interactions, P8-D6 was incubated with human liver (HLM) or recombinant CYP enzymes and the respective marker substrate according to the FDA (with the exception of using amitriptyline instead of S-mephenytoin). −
However, as some conversions were catalyzed by several enzymes, the conversion rates in HLM increased (e.g., bupropion and diclofenac).
To examine a possible in vitro CYP inhibition, the following CYP enzymes and marker substrates were investigated according to the FDA: , phenacetin (CYP1A2), bupropion (CYP2B6), amodiaquine (CYP2C8), diclofenac (CYP2C9), amitriptyline (CYP2C19), dextromethorphan (CYP2D6), testosterone (CYP3A4), and nifedipine (CYP3A4). Incubation was performed in a 0.2 mL reaction mix consisting of PBS buffer (pH 7.4), 1 mM marker substrate, 1 mM NADPH, and either 0.5 mg/mL recombinant CYP enzyme or human liver microsomes. P8-D6 was added for a final concentration of 0.5 μM, 1 μM, 5 μM, 10 μM, 25 μM, 50 μM, 100 μM, 500 μM, 1000 μM, and (in some cases) 5000 μM. Sample preparation was performed according to in vitro biotransformation.

T3 sequence (P02765 19-367): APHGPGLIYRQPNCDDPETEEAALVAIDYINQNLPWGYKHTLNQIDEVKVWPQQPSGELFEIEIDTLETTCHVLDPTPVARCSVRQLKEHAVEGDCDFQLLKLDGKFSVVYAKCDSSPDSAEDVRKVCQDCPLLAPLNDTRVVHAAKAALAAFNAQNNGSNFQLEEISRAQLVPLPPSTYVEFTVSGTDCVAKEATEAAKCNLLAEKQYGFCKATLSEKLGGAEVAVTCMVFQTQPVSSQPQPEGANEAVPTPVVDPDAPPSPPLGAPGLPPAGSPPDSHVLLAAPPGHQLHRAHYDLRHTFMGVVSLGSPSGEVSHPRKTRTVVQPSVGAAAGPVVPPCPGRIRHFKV
T2 sequence (P02768 25-609): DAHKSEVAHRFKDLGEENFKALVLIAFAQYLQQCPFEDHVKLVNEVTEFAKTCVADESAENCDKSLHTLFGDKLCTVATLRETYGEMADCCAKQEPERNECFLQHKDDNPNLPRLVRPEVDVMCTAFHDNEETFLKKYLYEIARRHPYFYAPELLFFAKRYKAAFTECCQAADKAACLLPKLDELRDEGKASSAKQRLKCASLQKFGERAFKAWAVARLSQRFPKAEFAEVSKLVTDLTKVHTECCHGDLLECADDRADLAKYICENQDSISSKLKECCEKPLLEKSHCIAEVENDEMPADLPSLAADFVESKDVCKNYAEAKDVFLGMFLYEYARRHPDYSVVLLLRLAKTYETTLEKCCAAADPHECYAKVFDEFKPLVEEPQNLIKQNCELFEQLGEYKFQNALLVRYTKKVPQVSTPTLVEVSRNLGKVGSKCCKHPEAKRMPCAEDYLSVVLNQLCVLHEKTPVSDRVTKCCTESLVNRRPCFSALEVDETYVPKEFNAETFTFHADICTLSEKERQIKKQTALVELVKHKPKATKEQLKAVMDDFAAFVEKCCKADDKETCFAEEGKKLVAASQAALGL
T4 sequence (P02787 20-698): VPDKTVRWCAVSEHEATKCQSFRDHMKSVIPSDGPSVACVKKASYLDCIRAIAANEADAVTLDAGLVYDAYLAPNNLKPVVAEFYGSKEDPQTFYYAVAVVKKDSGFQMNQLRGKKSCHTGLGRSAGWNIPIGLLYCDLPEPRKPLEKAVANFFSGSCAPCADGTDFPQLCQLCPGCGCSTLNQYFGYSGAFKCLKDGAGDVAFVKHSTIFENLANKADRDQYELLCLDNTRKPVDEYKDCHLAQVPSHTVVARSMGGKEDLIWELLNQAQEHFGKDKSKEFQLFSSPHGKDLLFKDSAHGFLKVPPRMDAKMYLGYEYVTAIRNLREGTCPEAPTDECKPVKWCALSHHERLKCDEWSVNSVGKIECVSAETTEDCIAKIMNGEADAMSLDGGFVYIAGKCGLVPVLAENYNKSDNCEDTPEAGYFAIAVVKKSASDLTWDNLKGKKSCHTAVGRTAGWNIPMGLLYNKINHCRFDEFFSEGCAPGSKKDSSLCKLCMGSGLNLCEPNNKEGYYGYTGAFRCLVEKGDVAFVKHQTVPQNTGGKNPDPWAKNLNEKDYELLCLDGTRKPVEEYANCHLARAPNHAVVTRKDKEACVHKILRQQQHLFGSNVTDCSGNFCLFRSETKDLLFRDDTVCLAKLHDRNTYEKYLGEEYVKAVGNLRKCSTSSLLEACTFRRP

`COc1cc(-c2cc3ccncc3c3nc(OCC[N+](C)(C)[O-])c4cnccc4c23)cc(OC)c1OC` [P8-D6 N-oxide]: the “formation of metabolite from P8-D6” value in series [1] (rat liver microsomes) amounted to 1.91%; in series [1] (rat lung PNS), 1.37%.

For the molecule `COc1cc(-c2cc3ccncc3c3nc(OCCN(C)C)c4cnccc4c23)cc(OC)c1OC` [P8-D6, 6-(N,N-dimethyl-2-aminoethoxy)-11-(3,4,5-trimethoxyphenyl)-pyrido[3,4-c][1,9]-phenanthroline], the “binding of P8-D6” value at human was found to be 3.06%; at human serum albumin, 0.91%; on human α2-HS glycoprotein, 85.29%; on human transferrin, 90.43%; on human fibrinogen, 78.89%; in the series with LDL it was 87.99%. In the series with γ-globulins, the “binding of P8-D6” value is 94.59%. Besides, the values for the IC50 against CYP1A2 (HLM) and at CYP1A2 (recombinant CYP isoenzyme) were 912 µM and 503 µM, respectively.
